Laboratory results as given in US11484601B2, “Targeting M2-like tumor-associated macrophages by using melittin-based proapoptotic peptide” (TWI[…]., priority 2018, dated 2022).

Columns and labels:
M2 macrophage = assay: Annexin V-FITC / MitoTracker flow cytometry, M2 macrophage; type: cell-based, mouse; conditions: 0.8 μM peptide, 6 hours
Description: More specifically, the cells were stained with Annexin V-fluorescein isothiocyanate (FITC; BD Biosciences, CA, USA) and MitoTracker RedBOX (Invitrogen). The cells were inoculated at 5×10^5 cells/well, onto a 24-well plate. The next day, 0.8 μM peptide was applied thereto. In 1, 3 and 6 hours after the application, the cells were reacted with 250 nM MitoTracker for 1 hour in a serum-free culture solution. Thereafter, the cells were collected and reacted with Annexin V again. The reacted cells were measured with BD FACSCalibur, and were analyzed via FlowJo software (Treestar, Inc., CA, USA). MitoTracker could pass through protoplasmic membrane depending on the membrane charge and then accumulated within the mitochondria. In other words, staining may be identified in the mitochondria membrane of living cells, but staining may be difficult in cells where apoptosis occurs due to membrane disturbance.

4T1 breast cancer cells = assay: 4T1 breast cancer model in BALB/c mice, lung nodules and H&E; type: in vivo, mouse; conditions: 175 nmol/kg at 3-day intervals; for nodules on the lung surface: 15 days after cancer cell injection
Description: More specifically, 4T1 breast cancer cells (1×10^5) were injected into BALB/c mice. Then, 3 days later, 175 nmol/kg of each of PBS, dKLA, MEL and MEL-dKLA was injected into each group at 3-day intervals. To investigate the level of metastasis and nodules on the lung surface, on 15 days after cancer cell injection, mice were sacrificed and the nodules on the lung surface were identified.
More specifically, for H&E staining, we immersed the tissue in a hematoxylin solution, stained the cell nucleus with a purple color. Then, we removed a remaining-stained portion except for the nucleus with an acidic alcohol solution, and immersed the tissue again in an eosin-added solution to stain the cytoplasm with a pink color. Then, the structure of the cell was observed.

[1] = tested on: M2-type tumor-associated macrophage (CD45+F4/80+CD206+); assay: Flow cytometry of tumor tissue, M2-type TAM; type: in vivo, mouse
Description: More specifically, the tumor cells were thinly crushed and separated from each other in DMEM to which DNasel (1 U/mL) and collagenase D (1 mg/mL) were added. The tissue was gently agitated for 1 hour at 37° C., and separated using a […] nylon mesh filter. Red blood cells were dissolved in Phrmlyse buffer (BE bioscience). Individual cells passed through a 40-μm nylon mesh filter and then were stained with following antibodies: CD4+ T cell (CD45+CD4+CD8−), CD8+ T cell (CD45+CD4−CD8+), Foxp3+ regulatory T cell (CD4+CD25+Foxp3+), dendritic cell (CD45+CD11b+CD11c+), and M1 (CD45+F4/80+CD86+) or M2 macrophage (CD45+F4/80+CD206+): anti-CD45-FITC, anti-CD4-phycoerythrin (PE), anti-CD8-allophycocyanin (APC), anti-CD4-FITC, anti-CD25-PE, anti-Foxp3-Alexa Fluor647, anti-CD11b-APC, anti-CD11c-APCcy7, anti-Grl-PEcy7, anti-CD86-PEcy7, and anti-CD206-APC antibodies. Annexin-V was previously treated to measure the cell percentage of macrophages.

[2] = tested on: 4T1-luciferase breast cancer cells; assay: 4T1-luciferase breast cancer in mammary gland of NOD-SCID mice; type: in vivo, mouse; conditions: 175 nmol/kg once every 3 days; for luminescence level at the metastasis site / metastasis area (lymph nodes of the armpit and lungs): 4 weeks; for growth of breast cancer cells in mammary gland: NOD-SCID mice
Description: More specifically, to identify the effect of MEL-dKLA on tumor growth and metastasis when breast cancer cells were […] into the breast, 4T1-luciferase breast cancer cells (1×10^5) were injected into NOD-SCID mice as immunodeficient mice. From the time point when the tumor mass began to grow in the mammary gland No. 4 on 5 days after the injection, 175 nmol/kg of each of PBS, dKLA, MEL and MEL-dKLA was injected into each group once every 3 days. To measure the growth of the tumor, the size of the tumor was measured once every 3 days using a caliper device, and all tumor tissues were collected 4 weeks after the injection. On 4 weeks after the tumor transplantation, in order to identify metastasis of the tumor to the lymph nodes and lungs, D-luciferin as a substrate of luciferase enzyme was diluted to a concentration of 40 mg/ml and then, 100 μl thereof was administered to mice in an intraperitoneal administration mode. After reacting for about 15 minutes, luminescence was measured using NightOwl (Berthold Technologies) as an in vivo imaging device. Then, we analyzed the luminescence with pictures of mice to identify the level of metastasis to the whole body and lungs. The animal experiment was approved by the Animal Management Committee of Kyunghee University [KHUASP(SE)-18-133], and the animals were managed via autonomous feeding of water and food under a 12-hour light/dark cycle environment without pathogens.

MMP-9 = assay: Quantitative real-time PCR of lung tissue, MMP-9; type: in vivo, mouse
Description: To measure the ability of MEL-dKLA to inhibit tumor metastasis, expression levels of CD44 known to interact with extracellular matrix ligand to promote metastasis and invasion and thus to be widely expressed in cancer, CCL22 known as M2-type macrophage marker, HIF-1α known as a marker of angiogenesis, metastasis and invasion, Ym1 as a marker of M2-type macrophage, and MMP-9 involved in the migration and settlement of tumor cells were measured via quantitative real-time PCR.
More specifically, RNA was extracted from lung tissue using an easy-BLUE RNA extraction kit (iNtRON Biotechnology, Korea). Then, cDNA was synthesized according to the manual for cyclescript reverse transcriptase (Bioneer, Korea). cDNA synthesis conditions were as follows: 15 seconds at 95, 10 seconds at 55, and 10 seconds at 72. Each reaction was conducted 3 times. […] Quantitative real-time PCR was performed using the SensiFAST SYBR no-Rox kit (Bioline, Korea).

Compound | cell death of M2 macrophage (Annexin V / MitoTracker) (M2 macrophage) | metastasis to the lung by H&E staining (4T1 breast cancer cells) | nodules on the lung surface (4T1 breast cancer cells) | proportion of M2-type tumor-associated F4/80+ CD206+ TAM in CD45+ leukocytes [1] | luminescence level at the metastasis site [2] | metastasis area (lymph nodes of the armpit and lungs) [2] | growth of breast cancer cells in mammary gland [2] | expression of MMP-9 (MMP-9) | number of nodules (4T1 breast cancer cells; lungs) | M2-type TAM cells compared to the PBS-treated group [1]
d[KLAKLAKKLAKLAK] (D-amino acids) [dKLA, pro-apoptotic peptide KLA, used as control] | no significant difference was found | tumor cells were widely spread and metastasis occurred | no reduction thereof was observed | about 20% | exhibited a tendency to decrease but did not exhibit significance | no significant difference from the PBS-treated group | did not occur significantly | high |  | 
CC[C@H](C)[C@H](NC(=O)CN)C(=O)NCC(=O)N[C@@H](C)C(=O)N[C@H](C(=O)N[C@@H](CC(C)C)C(=O)N[C@@H](CCCCN)C(=O)N[C@H](C(=O)N[C@@H](CC(C)C)C(=O)N[C@H](C(=O)N[C@H](C(=O)NCC(=O)N[C@@H](CC(C)C)C(=O)N1CCC[C@H]1C(=O)N[C@@H](C)C(=O)N[C@@H](CC(C)C)C(=O)N[C@H](C(=O)N[C@@H](CO)C(=O)N[C@@H](Cc1c[nH]c2ccccc12)C(=O)N[C@H](C(=O)N[C@@H](CCCCN)C(=O)N[C@@H](CCCNC(=N)N)C(=O)N[C@@H](CCCCN)C(=O)N[C@@H](CCCNC(=N)N)C(=O)N[C@@H](CCC(N)=O)C(=O)N[C@@H](CCC(N)=O)C(N)=O)[C@@H](C)CC)[C@@H](C)CC)[C@@H](C)O)[C@@H](C)O)C(C)C)C(C)C [MEL] | no significant difference was found | relatively smaller metastasis occurred | no reduction thereof was observed | about 10% | exhibited a tendency to decrease but did not exhibit significance | no significant difference from the PBS-treated group | did not occur significantly | lower compared to that in the PBS-treated group | no significant decrease | decreased by half
